Source: ChEMBL document CHEMBL3885861, “Open TG-GATES”

Organism: Rattus norvegicus
Experiment: Open TG-GATES - Regimen: Single
Assay type: toxicity, organism-based, Sprague-Dawley
Design: regimen Single, gender Male, age 6 weeks
Details: in vivo, po, 1000 mg/kg, route gavage, dose level High; for APTT / Bas / Eos / Fbg / Hb / Ht / Lym / MCH / MCHC / MCV / Mono / Neu / PT / Plat / RBC / Ret / WBC: tissue Blood; for KIDNEY_L / KIDNEY_R / KIDNEY_TOTAL: tissue Kidney; for LIVER: tissue Liver; for A/G / ALP / ALT / AST / BUN / CRE / Ca / Cl / DBIL / GLC / IP / K / LDH / Na / PL / RALB / TBIL / TC / TG / TP / gamma-GTP: tissue Plasma

Q: Which TERMINAL_BW (3 h) does the source give for CN/C(=N/CCSCc1nc[nH]c1C)NC#N [CIMETIDINE] here?
A: 215.2 g

Q: What about the APTT (3 h) of the same compound?
A: 19.1 s

Q: What about the Bas (3 h) of the same compound?
A: 0%

Q: What about the Eos (3 h) of the same compound?
A: 1%

Q: And the Fbg (3 h)?
A: 216.2 mg/dL

Q: And the Hb (3 h)?
A: 12.3 g/dL

Q: And the Ht (3 h)?
A: 36.7%

Q: What about the Lym (3 h) of the same compound?
A: 76.4%

Q: And the MCH (3 h)?
A: 21.2 pg

Q: And the MCHC (3 h)?
A: 33.5%

Q: What about the MCV (3 h) of the same compound?
A: 63.1 fL

Q: What about the Mono (3 h) of the same compound?
A: 3%

Q: What about the Neu (3 h) of the same compound?
A: 18.6%

Q: What about the PT (3 h) of the same compound?
A: 13.1 s

Q: What about the Plat (3 h) of the same compound?
A: 126.2 x10_4/uL

Q: What about the RBC (3 h) of the same compound?
A: 582 x10_4/ul

Q: What about the Ret (3 h) of the same compound?
A: 7.9%

Q: What about the WBC (3 h) of the same compound?
A: 89.9 x10_2/uL

Q: What about the KIDNEY_L (3 h) of the same compound?
A: 1 g

Q: And the KIDNEY_R (3 h)?
A: 1 g

Q: What about the KIDNEY_TOTAL (3 h) of the same compound?
A: 2 g

Q: What about the LIVER (3 h) of the same compound?
A: 9.8 g

Q: What about the A/G (3 h) of the same compound?
A: 1.7

Q: What about the ALP (3 h) of the same compound?
A: 1031 IU/L

Q: And the ALT (3 h)?
A: 35.6 IU/L

Q: What about the AST (3 h) of the same compound?
A: 67 IU/L

Q: What about the BUN (3 h) of the same compound?
A: 8.6 mg/dL

Q: And the CRE (3 h)?
A: 0.4 mg/dL

Q: What about the Ca (3 h) of the same compound?
A: 10.6 mg/dL

Q: What about the Cl (3 h) of the same compound?
A: 104.4 meq/L

Q: And the DBIL (3 h)?
A: 0.068 mg/dL

Q: And the GLC (3 h)?
A: 181.8 mg/dL

Q: What about the IP (3 h) of the same compound?
A: 8.3 mg/dL

Q: And the K (3 h)?
A: 4 meq/L

Q: And the LDH (3 h)?
A: 175 IU/L

Q: And the Na (3 h)?
A: 141.4 meq/L

Q: And the PL (3 h)?
A: 150.2 mg/dL

Q: And the RALB (3 h)?
A: 3.3 g/dL

Q: And the TBIL (3 h)?
A: 0.1 mg/dL

Q: And the TC (3 h)?
A: 77.6 mg/dL

Q: What about the TG (3 h) of the same compound?
A: 46.6 mg/dL

Q: What about the TP (3 h) of the same compound?
A: 5.3 g/dL

Q: And the gamma-GTP (3 h)?
A: 1 IU/L

Q: What about the TERMINAL_BW (6 h) of the same compound?
A: 211.9 g

Q: What about the APTT (6 h) of the same compound?
A: 19 s

Q: What about the Bas (6 h) of the same compound?
A: 0%

Q: And the Eos (6 h)?
A: 0.8%

Q: What about the Fbg (6 h) of the same compound?
A: 227.4 mg/dL

Q: And the Hb (6 h)?
A: 13.2 g/dL

Q: And the Ht (6 h)?
A: 38.2%

Q: What about the Lym (6 h) of the same compound?
A: 78%

Q: What about the MCH (6 h) of the same compound?
A: 21.7 pg

Q: And the MCHC (6 h)?
A: 34.5%

Q: What about the MCV (6 h) of the same compound?
A: 63 fL

Q: And the Mono (6 h)?
A: 2.8%

Q: And the Neu (6 h)?
A: 17.2%

Q: And the PT (6 h)?
A: 13.5 s

Q: And the Plat (6 h)?
A: 125.8 x10_4/uL

Q: What about the RBC (6 h) of the same compound?
A: 607.4 x10_4/ul

Q: And the Ret (6 h)?
A: 7.6%

Q: What about the WBC (6 h) of the same compound?
A: 100.8 x10_2/uL

Q: And the KIDNEY_L (6 h)?
A: 1 g

Q: What about the KIDNEY_R (6 h) of the same compound?
A: 1 g

Q: And the KIDNEY_TOTAL (6 h)?
A: 2 g

Q: And the LIVER (6 h)?
A: 9.6 g

Q: What about the A/G (6 h) of the same compound?
A: 1.5

Q: What about the ALP (6 h) of the same compound?
A: 955 IU/L

Q: And the ALT (6 h)?
A: 34.2 IU/L

Q: What about the AST (6 h) of the same compound?
A: 65.8 IU/L

Q: And the BUN (6 h)?
A: 8.2 mg/dL

Q: And the CRE (6 h)?
A: 0.4 mg/dL

Q: What about the Ca (6 h) of the same compound?
A: 10.6 mg/dL

Q: And the Cl (6 h)?
A: 103.6 meq/L

Q: And the DBIL (6 h)?
A: 0.078 mg/dL

Q: And the GLC (6 h)?
A: 200.8 mg/dL

Q: And the IP (6 h)?
A: 9.8 mg/dL

Q: And the K (6 h)?
A: 4 meq/L

Q: What about the LDH (6 h) of the same compound?
A: 162.2 IU/L

Q: And the Na (6 h)?
A: 142.4 meq/L

Q: And the PL (6 h)?
A: 153.4 mg/dL

Q: And the RALB (6 h)?
A: 3.4 g/dL

Q: What about the TBIL (6 h) of the same compound?
A: 0.1 mg/dL

Q: And the TC (6 h)?
A: 75.6 mg/dL

Q: What about the TG (6 h) of the same compound?
A: 83.2 mg/dL

Q: And the TP (6 h)?
A: 5.6 g/dL

Q: What about the gamma-GTP (6 h) of the same compound?
A: 1.2 IU/L

Q: What about the TERMINAL_BW (9 h) of the same compound?
A: 208.6 g

Q: And the APTT (9 h)?
A: 18.7 s

Q: And the Bas (9 h)?
A: 0%

Q: And the Eos (9 h)?
A: 1%

Q: And the Fbg (9 h)?
A: 229.2 mg/dL

Q: And the Hb (9 h)?
A: 13.1 g/dL

Q: What about the Ht (9 h) of the same compound?
A: 37.4%

Q: And the Lym (9 h)?
A: 80%

Q: And the MCH (9 h)?
A: 22.1 pg

Q: What about the MCHC (9 h) of the same compound?
A: 35.1%

Q: What about the MCV (9 h) of the same compound?
A: 63 fL

Q: And the Mono (9 h)?
A: 2.4%

Q: What about the Neu (9 h) of the same compound?
A: 15.6%

Q: What about the PT (9 h) of the same compound?
A: 14.1 s

Q: And the Plat (9 h)?
A: 120.4 x10_4/uL

Q: And the RBC (9 h)?
A: 594.2 x10_4/ul

Q: And the Ret (9 h)?
A: 7.9%

Q: What about the WBC (9 h) of the same compound?
A: 94.9 x10_2/uL

Q: And the KIDNEY_L (9 h)?
A: 0.9 g

Q: What about the KIDNEY_R (9 h) of the same compound?
A: 0.9 g

Q: And the KIDNEY_TOTAL (9 h)?
A: 1.9 g

Q: What about the LIVER (9 h) of the same compound?
A: 8.9 g

Q: And the A/G (9 h)?
A: 1.7

Q: And the ALP (9 h)?
A: 1031 IU/L

Q: And the ALT (9 h)?
A: 32.8 IU/L

Q: What about the AST (9 h) of the same compound?
A: 62.4 IU/L

Q: And the BUN (9 h)?
A: 8.2 mg/dL

Q: And the CRE (9 h)?
A: 0.4 mg/dL

Q: And the Ca (9 h)?
A: 10.3 mg/dL

Q: And the Cl (9 h)?
A: 103.6 meq/L

Q: What about the DBIL (9 h) of the same compound?
A: 0.068 mg/dL

Q: And the GLC (9 h)?
A: 193.6 mg/dL

Q: What about the IP (9 h) of the same compound?
A: 9.7 mg/dL

Q: And the K (9 h)?
A: 3.7 meq/L

Q: And the LDH (9 h)?
A: 157 IU/L

Q: And the Na (9 h)?
A: 142 meq/L

Q: What about the PL (9 h) of the same compound?
A: 150.4 mg/dL

Q: What about the RALB (9 h) of the same compound?
A: 3.5 g/dL

Q: What about the TBIL (9 h) of the same compound?
A: 0.1 mg/dL

Q: What about the TC (9 h) of the same compound?
A: 77.2 mg/dL

Q: What about the TG (9 h) of the same compound?
A: 58.6 mg/dL

Q: What about the TP (9 h) of the same compound?
A: 5.5 g/dL

Q: What about the gamma-GTP (9 h) of the same compound?
A: 1.4 IU/L

Q: What about the TERMINAL_BW (24 h) of the same compound?
A: 223 g

Q: And the APTT (24 h)?
A: 19.3 s

Q: What about the Bas (24 h) of the same compound?
A: 0%

Q: What about the Eos (24 h) of the same compound?
A: 1%

Q: What about the Fbg (24 h) of the same compound?
A: 212.4 mg/dL

Q: What about the Hb (24 h) of the same compound?
A: 13.1 g/dL

Q: What about the Ht (24 h) of the same compound?
A: 39%

Q: What about the Lym (24 h) of the same compound?
A: 80.6%

Q: And the MCH (24 h)?
A: 21.3 pg

Q: What about the MCHC (24 h) of the same compound?
A: 33.6%

Q: What about the MCV (24 h) of the same compound?
A: 63.4 fL

Q: And the Mono (24 h)?
A: 2.4%

Q: What about the Neu (24 h) of the same compound?
A: 14.8%

Q: What about the PT (24 h) of the same compound?
A: 13 s

Q: And the Plat (24 h)?
A: 122.4 x10_4/uL

Q: And the RBC (24 h)?
A: 616 x10_4/ul

Q: And the Ret (24 h)?
A: 6.8%

Q: And the WBC (24 h)?
A: 101.7 x10_2/uL

Q: What about the KIDNEY_L (24 h) of the same compound?
A: 1 g

Q: What about the KIDNEY_R (24 h) of the same compound?
A: 1 g

Q: And the KIDNEY_TOTAL (24 h)?
A: 2 g

Q: What about the LIVER (24 h) of the same compound?
A: 10.6 g

Q: What about the A/G (24 h) of the same compound?
A: 1.6

Q: And the ALP (24 h)?
A: 1054.4 IU/L

Q: What about the ALT (24 h) of the same compound?
A: 34.2 IU/L

Q: What about the AST (24 h) of the same compound?
A: 68.8 IU/L

Q: What about the BUN (24 h) of the same compound?
A: 17.8 mg/dL

Q: What about the CRE (24 h) of the same compound?
A: 0.4 mg/dL

Q: What about the Ca (24 h) of the same compound?
A: 10.6 mg/dL

Q: What about the Cl (24 h) of the same compound?
A: 102 meq/L

Q: And the DBIL (24 h)?
A: 0.1 mg/dL

Q: And the GLC (24 h)?
A: 206.8 mg/dL

Q: What about the IP (24 h) of the same compound?
A: 7.7 mg/dL

Q: And the K (24 h)?
A: 3.8 meq/L

Q: And the LDH (24 h)?
A: 200 IU/L

Q: What about the Na (24 h) of the same compound?
A: 140 meq/L

Q: And the PL (24 h)?
A: 148 mg/dL

Q: And the RALB (24 h)?
A: 3.3 g/dL

Q: And the TBIL (24 h)?
A: 0.2 mg/dL

Q: And the TC (24 h)?
A: 76.2 mg/dL

Q: What about the TG (24 h) of the same compound?
A: 96.2 mg/dL

Q: And the TP (24 h)?
A: 5.4 g/dL

Q: And the gamma-GTP (24 h)?
A: 1.4 IU/L
